Data reported in patent US20080262017A1, “Sugar-Free Storage-Stable Antihistaminic Syrups” (priority 2006, published 2008).
Read-outs that look alike come from different tables or passages of the source.

Experiments:
[1] = cited from earlier work
[2] = Desloratadine stability (assay, regression analysis); type: physicochemical; settings: Example 1 formulation, regression analysis of data through 18 months
Description: Data obtained through 18 months at 25° C./60% RH and 30° C./65% RH were evaluated by regression analysis in order to determine a suitable shelf life (see FIGS. 2A and 2B).

[3] = Example 1 formulation; throughout the 18 month stability interval
Description: (§1) Three batches of the exemplary formulation detailed in Example 1 were manufactured (referred to herein as Batches A, B, and C) and packaged in two different sizes of amber glass bottles (120 mL and 15 mL).

Sodium benzoate assay = type: physicochemical; settings: Example 1 formulation; throughout the 18 month stability interval
Description: as §1

Compound: Clc1ccc2c(c1)CCc1cccnc1C2=C1CCNCC1 [Desloratadine, 8-chloro-6,11-dihydro-11-(4-piperidinylidene)-5H-benzo[5,6]cyclohepta[1,2-b]pyridine]
- solubility ([1]; in ethanol): very soluble
- solubility ([1]; in propylene glycol): very soluble
- solubility ([1]; in water): slightly soluble
- predicted desloratadine assay value over a 24 month shelf life ([2]; stored at 25° C./60% RH): 100.9%
- predicted desloratadine assay value over a 24 month shelf life ([2]; stored at 30° C./65% RH): 98.9%

Compound: O=C([O-])CN(CCN(CC(=O)[O-])CC(=O)O)CC(=O)O.[Na+].[Na+] [EDTA, Edetate Disodium]
- EDTA assay trend [3]: no degradation trend

Compound: O=C([O-])c1ccccc1.[Na+] [sodium benzoate]
- sodium benzoate assay trend (Sodium benzoate assay): no degradation trend
